Measurements as given in PubChem BioAssay (NCI).
Where “and” joins values, the source holds several entries; their conditions need not be identical. Identical values can stand only once.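 Five concentrations, 48 hours, 96-well plates. GI50 marks 50% less growth. TGI: total growth inhibition.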

Assays:
Assay in all cases: inhibition of tumour cell growth, NCI panel, 48 h
A498 renal = test system: A498 renal
BT-549 breast = test system: BT-549 breast
HOP-92 NSCLC = test system: HOP-92 NSCLC
HS 578T breast = test system: HS 578T breast
IGROV1 ovarian = test system: IGROV1 ovarian
M14 melanoma = test system: M14 melanoma
DLD-1 colon = test system: DLD-1 colon
DMS 114 small cell lung = test system: DMS 114 small cell lung
DMS 273 small cell lung = test system: DMS 273 small cell lung
KM20L2 colon = test system: KM20L2 colon
HOP-18 NSCLC = test system: HOP-18 NSCLC
SNB-78 CNS = test system: SNB-78 CNS
SR leukemia = test system: SR leukemia

SMILES | TGI (A498 renal) | TGI (BT-549 breast) [µM] | TGI (HOP-92 NSCLC) | TGI (HS 578T breast) | TGI (IGROV1 ovarian) [µM] | TGI (M14 melanoma) [µM] | TGI (DLD-1 colon) [µM] | TGI (DMS 114 small cell lung) [µM] | TGI (DMS 273 small cell lung) [µM] | TGI (KM20L2 colon) [µM] | TGI (HOP-18 NSCLC) [µM] | TGI (SNB-78 CNS) [µM] | TGI (SR leukemia) [µM] | GI50 (A498 renal) [µM] | GI50 (HOP-92 NSCLC) [µM] | GI50 (HS 578T breast) [µM] | GI50 (IGROV1 ovarian) | GI50 (M14 melanoma) [µM] | GI50 (SR leukemia) | GI50 (BT-549 breast)
C=CCNC(=O)CN(CC(=O)OC)C1CCCCC1N(CC(=O)OC)CC(=O)OC (stereo unspecified) | > 100 µM | > 100 | > 100 µM | > 100 µM | > 100 | > 100 |  |  |  |  |  |  |  |  |  |  |  |  |  | 
O=C(O)C12CC3CC(C1)C2C=C3P(=O)(O)O (stereo unspecified) |  |  | > 100 µM |  | > 100 | > 100 | > 100 | > 100 | > 100 | > 100 |  |  |  |  |  |  |  |  |  | 
COc1cc(/C=C/C2=C(C#N)C(=O)OC2(C)C)ccc1O | > 100 µM |  | > 100 µM |  | > 100 |  | > 100 |  | > 100 | > 100 | > 100 | > 100 | 67.3 |  |  |  |  |  |  | 
Nc1n[nH]c(CCCCCCCc2nc(N)n[nH]2)n1 | > 100 µM |  |  |  |  | > 100 | > 100 | > 100 |  |  |  | > 100 | > 100 |  |  |  |  |  |  | 
Cc1c(C2=NN=C(N=Nc3c(O)cccc3O)/C2=C/c2ccccc2)c(=O)n(-c2ccccc2)n1C | > 100 µM |  | > 100 µM |  | > 100 |  | > 100 | > 100 | > 100 | > 100 | > 100 | > 100 |  |  |  |  |  |  |  | 
CC(C)=CC(=O)OC1C2C(C)=CC(O)C(O)C2(C)C2C3(O)OCC24C(CC(=O)OC14)C(C)C3O (stereo unspecified) | 4.07 µM |  | 0.26 µM |  | 0.706 |  | 0.485 | 0.0567 | 0.101 | 4.57 | 7.58 | 1.11 |  |  |  |  |  |  |  | 
Cc1cn(C2CC(O)C(Cn3nncc3Cn3ncc(=O)[nH]c3=O)O2)c(=O)[nH]c1=O (stereo unspecified) | > 100 µM | > 100 | > 100 µM | > 100 µM | > 100 | > 100 |  |  |  |  |  |  |  |  |  |  |  |  |  | 
Cc1cccc(CNc2ncnc3[nH]ncc23)c1 | > 100 µM | > 100 | > 100 µM | > 100 µM | > 100 | > 100 |  |  |  |  |  |  | > 100 |  |  |  |  |  |  | 
O=C1c2ccccc2C(=O)c2c1cc1c(c2[N+](=O)[O-])OCO1 | 2.38 µM |  | 3.75 µM | 6.02 µM | 7.62 | 16.9 |  |  |  |  |  |  | 1.55 | 0.0824 | 1.27 | 2.28 | 1.21 µM | 3.78 | 0.242 µM | 
O=C(O)CCCc1ccccc1 | 302 µM and > 1000 µM | > 1000 | 363 µM and > 1000 µM | 625 µM and > 1000 µM | > 1000 | > 1000 |  |  |  |  |  |  | > 1000 | > 1000 | > 1000 | > 1000 | 412 µM and > 1000 µM | > 1000 | 215 µM and 28.5 µM | 242 µM and > 1000 µM
CCCCCCCCCCCCC(O)C(=O)O (stereo unspecified) | > 100 µM | > 100 | > 100 µM | > 100 µM | > 100 | > 100 |  |  |  |  |  |  |  |  |  |  |  |  |  | 
